# According to patent US9096601B2 (CSPC Zhongqi Pharmaceutical Technology (Shijiazhuang) Co., …, priority 2010, dated 2015):
# Like-named read-outs stand apart in the source and are kept apart here.
# What was measured:
# [1] = target: ALK (Homo sapiens (Human), UniProt Q9UM73); test: Kinase inhibitory activity, isotopic labeling (γ-33P-ATP); format: biochemical; settings: compound at 10 μM
# Procedure: (§1) The object of this assay was to test the inventive compounds for the kinase inhibitory activity in vitro. In this assay, an isotopic labeling method was used to label the γ phosphate group on ATP. EGFR (including wild type, L858R mutant type and L858R/T790M double mutant type), VEGFR2, ALK, BTK, c-KIT, c-SRC, MET, PDGFRα and FLT3 kinases were tested in vitro for the activity inhibition. Staurosporine was used as a reference molecule (or referred to as a positive control). […] The IC50 value can be obtained by the calculation of the inhibitory rates at a series of different concentrations of the tested compounds.
# (§2) To a reaction tube were successively added the buffer solution (8 mM MOPS, pH 7.0, 0.2 mM EDTA, 10 mM MnCl2), the kinase to be tested (5-10 mU) (EGFR/ALK/BTK/c-KIT/c-SRC/MET/PDGFRα/VEGFR2), the substrate for the kinase to be tested (a reference material), 10 mM of the solution of magnesium acetate and γ-^33 P-ATP, and different concentrations of the tested compounds. […] The reaction was terminated with […] of the 3% phosphate buffer solution. 10 μL of the reaction liquid was titrated on the Filtermat A membrane. The membrane was washed with 75 mM of the phosphate solution thrice (5 minutes each time), and then with methanol once, and finally dried. The membrane was subjected to a scintillation counting. The value of the scintillation counting reflected the phosphorylation level of the substrate and therefore could characterize the inhibition of the kinase activity.
# [2] = target: BTK (Homo sapiens (Human), UniProt Q06187); test: as above; format: biochemical; settings: compound at 10 μM
# Chain of BTK (Q06187 whole entry): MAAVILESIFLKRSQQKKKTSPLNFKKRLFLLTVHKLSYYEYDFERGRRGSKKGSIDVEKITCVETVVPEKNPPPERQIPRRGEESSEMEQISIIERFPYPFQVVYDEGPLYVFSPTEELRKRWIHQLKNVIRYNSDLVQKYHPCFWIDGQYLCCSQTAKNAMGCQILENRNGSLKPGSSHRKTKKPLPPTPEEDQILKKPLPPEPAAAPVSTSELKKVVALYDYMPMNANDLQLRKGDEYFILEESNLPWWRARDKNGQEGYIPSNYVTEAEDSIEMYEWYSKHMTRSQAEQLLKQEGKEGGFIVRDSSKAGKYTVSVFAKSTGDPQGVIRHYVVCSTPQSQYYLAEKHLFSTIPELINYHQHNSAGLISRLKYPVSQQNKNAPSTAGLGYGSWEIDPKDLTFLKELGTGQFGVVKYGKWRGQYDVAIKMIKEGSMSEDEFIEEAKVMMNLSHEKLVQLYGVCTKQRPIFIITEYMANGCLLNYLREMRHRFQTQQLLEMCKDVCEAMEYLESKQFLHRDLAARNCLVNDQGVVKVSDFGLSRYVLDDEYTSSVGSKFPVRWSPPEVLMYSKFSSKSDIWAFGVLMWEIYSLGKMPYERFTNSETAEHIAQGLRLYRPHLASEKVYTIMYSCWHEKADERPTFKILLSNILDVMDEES
# Procedure: as §1, §2
# [3] = target: FLT3 (Homo sapiens (Human), UniProt P36888); test: as above; format: biochemical; settings: compound at 10 μM
# Procedure: as §1, §2
# [4] = target: MET (Homo sapiens (Human), UniProt P08581); test: as above; format: biochemical; settings: compound at 10 μM
# Procedure: as §1, §2
# [5] = target: PDGFRα (Homo sapiens (Human), UniProt P16234); test: as above; format: biochemical; settings: compound at 10 μM
# Chain of PDGFRα (P16234 24-1089): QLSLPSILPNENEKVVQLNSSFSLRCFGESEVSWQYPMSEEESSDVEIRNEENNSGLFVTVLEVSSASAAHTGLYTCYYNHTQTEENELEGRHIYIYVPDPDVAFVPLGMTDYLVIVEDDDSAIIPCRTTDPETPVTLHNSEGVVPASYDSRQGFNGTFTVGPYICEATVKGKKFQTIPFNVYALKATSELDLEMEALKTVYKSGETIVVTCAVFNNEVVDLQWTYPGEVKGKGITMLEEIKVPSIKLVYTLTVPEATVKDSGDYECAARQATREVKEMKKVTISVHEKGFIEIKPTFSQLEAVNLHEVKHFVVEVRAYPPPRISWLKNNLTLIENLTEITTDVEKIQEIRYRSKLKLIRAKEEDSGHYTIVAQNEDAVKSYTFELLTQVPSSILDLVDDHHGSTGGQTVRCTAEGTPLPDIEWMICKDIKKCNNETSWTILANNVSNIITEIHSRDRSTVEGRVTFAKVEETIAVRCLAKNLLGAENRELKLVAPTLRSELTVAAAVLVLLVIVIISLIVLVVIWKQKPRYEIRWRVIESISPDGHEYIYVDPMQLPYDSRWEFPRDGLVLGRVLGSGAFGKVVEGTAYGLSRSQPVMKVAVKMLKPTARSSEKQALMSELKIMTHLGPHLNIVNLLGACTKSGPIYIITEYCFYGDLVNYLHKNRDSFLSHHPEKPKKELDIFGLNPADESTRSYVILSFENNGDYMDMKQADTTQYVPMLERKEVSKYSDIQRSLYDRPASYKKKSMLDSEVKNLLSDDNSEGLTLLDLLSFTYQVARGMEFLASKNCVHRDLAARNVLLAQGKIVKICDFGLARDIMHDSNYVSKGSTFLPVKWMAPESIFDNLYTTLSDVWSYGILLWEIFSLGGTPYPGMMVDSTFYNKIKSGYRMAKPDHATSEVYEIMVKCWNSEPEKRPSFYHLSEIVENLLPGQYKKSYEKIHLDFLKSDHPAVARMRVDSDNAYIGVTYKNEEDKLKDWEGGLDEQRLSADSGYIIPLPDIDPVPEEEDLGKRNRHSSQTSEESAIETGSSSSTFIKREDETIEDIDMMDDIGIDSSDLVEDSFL
# Procedure: as §1, §2
# [6] = target: VEGFR2 (Homo sapiens (Human), UniProt P35968); test: as above; format: biochemical
# Chain of VEGFR2 (P35968 20-1356): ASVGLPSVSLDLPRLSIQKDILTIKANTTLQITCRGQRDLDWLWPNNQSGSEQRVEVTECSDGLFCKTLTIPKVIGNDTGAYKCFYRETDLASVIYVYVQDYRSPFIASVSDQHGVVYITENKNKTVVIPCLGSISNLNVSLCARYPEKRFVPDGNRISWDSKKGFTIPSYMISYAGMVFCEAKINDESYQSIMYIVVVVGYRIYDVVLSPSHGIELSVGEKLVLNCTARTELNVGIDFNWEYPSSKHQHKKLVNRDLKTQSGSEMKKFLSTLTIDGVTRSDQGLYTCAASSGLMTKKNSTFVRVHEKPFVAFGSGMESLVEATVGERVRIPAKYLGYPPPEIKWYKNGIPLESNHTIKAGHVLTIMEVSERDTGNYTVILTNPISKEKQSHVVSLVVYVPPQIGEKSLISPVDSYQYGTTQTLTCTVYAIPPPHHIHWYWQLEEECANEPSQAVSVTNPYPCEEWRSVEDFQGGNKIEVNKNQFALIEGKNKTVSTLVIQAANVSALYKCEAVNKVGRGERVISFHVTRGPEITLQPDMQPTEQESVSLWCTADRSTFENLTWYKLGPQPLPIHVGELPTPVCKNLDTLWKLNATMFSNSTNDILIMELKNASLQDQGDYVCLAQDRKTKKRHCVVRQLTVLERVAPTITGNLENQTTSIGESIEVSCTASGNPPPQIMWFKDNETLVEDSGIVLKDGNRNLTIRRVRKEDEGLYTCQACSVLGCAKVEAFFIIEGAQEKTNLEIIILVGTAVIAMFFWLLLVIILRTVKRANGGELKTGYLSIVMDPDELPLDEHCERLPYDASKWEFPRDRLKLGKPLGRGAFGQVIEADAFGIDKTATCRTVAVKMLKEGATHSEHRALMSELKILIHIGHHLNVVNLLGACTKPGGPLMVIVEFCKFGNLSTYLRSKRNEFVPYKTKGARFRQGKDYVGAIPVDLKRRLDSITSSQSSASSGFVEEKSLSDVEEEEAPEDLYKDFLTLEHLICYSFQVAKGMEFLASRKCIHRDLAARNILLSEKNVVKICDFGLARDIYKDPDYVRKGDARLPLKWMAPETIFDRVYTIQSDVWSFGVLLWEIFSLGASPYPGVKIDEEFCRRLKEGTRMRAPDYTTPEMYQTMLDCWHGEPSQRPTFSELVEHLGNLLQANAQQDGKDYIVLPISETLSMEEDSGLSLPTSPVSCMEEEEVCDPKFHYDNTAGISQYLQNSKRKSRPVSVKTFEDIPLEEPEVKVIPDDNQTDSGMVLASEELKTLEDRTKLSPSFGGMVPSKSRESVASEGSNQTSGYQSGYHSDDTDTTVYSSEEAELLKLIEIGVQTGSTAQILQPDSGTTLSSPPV
# Procedure: as §1, §2
# [7] = target: c-KIT (Homo sapiens (Human), UniProt P10721); test: as above; format: biochemical; settings: compound at 10 μM
# Chain of c-KIT (P10721 26-976): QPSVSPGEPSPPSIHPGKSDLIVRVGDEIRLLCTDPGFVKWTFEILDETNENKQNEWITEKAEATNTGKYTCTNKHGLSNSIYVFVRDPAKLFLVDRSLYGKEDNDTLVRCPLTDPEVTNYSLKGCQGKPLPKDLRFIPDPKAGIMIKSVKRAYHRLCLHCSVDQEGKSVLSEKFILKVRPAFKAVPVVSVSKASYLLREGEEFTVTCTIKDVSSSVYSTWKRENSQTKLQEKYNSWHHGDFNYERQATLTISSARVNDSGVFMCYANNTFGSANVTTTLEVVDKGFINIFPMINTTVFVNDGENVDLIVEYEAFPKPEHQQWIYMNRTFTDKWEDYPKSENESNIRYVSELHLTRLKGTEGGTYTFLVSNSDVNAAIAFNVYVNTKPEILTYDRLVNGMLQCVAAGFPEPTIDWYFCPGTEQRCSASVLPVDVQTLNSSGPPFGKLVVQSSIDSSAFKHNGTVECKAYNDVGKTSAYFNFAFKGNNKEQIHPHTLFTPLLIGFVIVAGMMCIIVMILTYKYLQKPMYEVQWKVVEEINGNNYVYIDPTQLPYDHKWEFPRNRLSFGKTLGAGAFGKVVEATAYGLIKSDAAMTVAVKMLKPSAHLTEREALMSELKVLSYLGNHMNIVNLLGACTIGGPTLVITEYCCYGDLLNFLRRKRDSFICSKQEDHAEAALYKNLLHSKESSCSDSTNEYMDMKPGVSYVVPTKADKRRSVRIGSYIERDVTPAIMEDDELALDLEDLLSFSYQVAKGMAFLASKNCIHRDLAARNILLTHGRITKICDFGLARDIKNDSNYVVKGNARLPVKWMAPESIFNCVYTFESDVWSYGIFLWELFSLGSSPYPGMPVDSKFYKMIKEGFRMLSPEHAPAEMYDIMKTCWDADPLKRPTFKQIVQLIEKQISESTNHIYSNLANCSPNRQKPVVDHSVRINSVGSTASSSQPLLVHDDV
# Procedure: as §1, §2
# [8] = target: c-SRC (Homo sapiens (Human), UniProt P12931); test: as above; format: biochemical; settings: compound at 10 μM
# Chain of c-SRC (P12931 whole entry, looked up): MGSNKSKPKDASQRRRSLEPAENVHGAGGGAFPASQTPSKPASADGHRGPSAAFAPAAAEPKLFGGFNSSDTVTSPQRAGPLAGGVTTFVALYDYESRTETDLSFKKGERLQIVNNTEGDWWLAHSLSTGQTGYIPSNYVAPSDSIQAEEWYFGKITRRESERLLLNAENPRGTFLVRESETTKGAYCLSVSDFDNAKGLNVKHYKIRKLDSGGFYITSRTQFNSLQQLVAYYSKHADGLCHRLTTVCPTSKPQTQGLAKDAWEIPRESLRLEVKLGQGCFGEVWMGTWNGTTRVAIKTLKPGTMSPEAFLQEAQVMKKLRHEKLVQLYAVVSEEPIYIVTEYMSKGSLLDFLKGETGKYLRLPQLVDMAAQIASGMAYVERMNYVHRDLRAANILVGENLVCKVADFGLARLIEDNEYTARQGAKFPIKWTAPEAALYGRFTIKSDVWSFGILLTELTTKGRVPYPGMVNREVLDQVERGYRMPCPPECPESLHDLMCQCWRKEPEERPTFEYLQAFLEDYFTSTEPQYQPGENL
# Procedure: as §1, §2
# [9] = system: acute myelogenous leukemia cell strain MV4-11; test: In-vitro tumor cell proliferation inhibition, MTT; format: cell-based, human
# [10] = system: breast carcinoma cell strain BT474; test: In-vitro tumor cell proliferation inhibition, MTT; format: cell-based, human
# Procedure, shortened: (§3)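 HCC827 and BT474 grew in RPMI-1640, A431 and SW620 in DMEM (10% FBS), seeded at 6×10^4 (HCC827) or 1-2×10^4 cells/ml overnight. Graded compound doses were applied for 72 h at 37 °C in triplicate, then MTT was added for 2-4 h and A570 was read. IC50 or inhibitory rate was derived versus untreated control.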
# [11] = system: breast carcinoma cell strain MDA-MB-468; test: In-vitro tumor cell proliferation inhibition, MTT; format: cell-based, human
# [12] = system: chronic granulocytic leukemia cell strain K562; test: In-vitro tumor cell proliferation inhibition, MTT; format: cell-based, human
# [13] = system: colon cancer cell strain HCT116; test: In-vitro tumor cell proliferation inhibition, MTT; format: cell-based, human
# [14] = system: colon cancer cell strain SW480; test: In-vitro tumor cell proliferation inhibition, MTT; format: cell-based, human
# [15] = system: colon cancer cell strain SW620; test: In-vitro tumor cell proliferation inhibition, MTT; format: cell-based, human
# Procedure, shortened: as §3
# [16] = system: gastric cancer cell strain MK-45; test: In-vitro tumor cell proliferation inhibition, MTT; format: cell-based, human; settings: 72 hours, read-out: MK45 (IC50)
# [17] = system: liver cancer cell strain Hep G2; test: In-vitro tumor cell proliferation inhibition, MTT; format: cell-based, human
# [18] = system: malignant melanoma cell strain A375; test: In-vitro tumor cell proliferation inhibition, MTT; format: cell-based, human
# [19] = system: squamous cell carcinoma cell strain A431; test: In-vitro tumor cell proliferation inhibition, MTT; format: cell-based, human
# Procedure, shortened: as §3
# [20] = 72 hours, read-out: HEPG2 (IC50)
Structure (SMILES),The kinase activity inhibitory rate (%) by the tested compounds at 10 μM ALK [1] [%],The kinase activity inhibitory rate (%) by the tested compounds at 10 μM BTK [2] [%],The kinase activity inhibitory rate (%) by the tested compounds at 10 μM FLT3 [3] [%],The kinase activity inhibitory rate (%) by the tested compounds at 10 μM MET [4] [%],The kinase activity inhibitory rate (%) by the tested compounds at 10 μM PDGFRα [5] [%],IC50 ([6]; ATP 90 μM (Km)) [µM],The kinase activity inhibitory rate (%) by the tested compounds at 10 μM c-KIT [7] [%],The kinase activity inhibitory rate (%) by the tested compounds at 10 μM c-SRC [8] [%],IC50 ([9]; 72 hours) [µM],IC50 ([10]; 72 hours) [µM],IC50 ([11]; 72 hours) [µM],IC50 ([12]; 72 hours) [µM],IC50 ([13]; 72 hours) [µM],IC50 ([14]; 72 hours) [µM],IC50 ([15]; 72 hours) [µM],IC50 [16] [µM],"IC50 [17, 20] [µM]",IC50 ([18]; 72 hours) [µM],IC50 ([19]; 72 hours) [µM],other results
CC(C)n1c(Nc2ccccc2)nc2cnc(Nc3ccc(C(=O)NN4CCN(C)CC4)cc3)nc21 [Compound 8-1],23,46,85,83,43,> 1,26,11,0.089,2.13,2.06,1.08,> 10,5.73,> 10,6.8,> 10,3.02,2.06,–
CC(C)n1c(Nc2ccc(F)c(Cl)c2)nc2cnc(Nc3ccc(C(=O)NN4CCN(C)CC4)cc3)nc21 [Compound 8-2],63,98,78,100,84,> 1,90,99,1.77,1.86,6.13,3.73,7.81,> 10,5.57,> 1,> 10,1.59,9.29,–
"COc1cc(C(=O)NN2CCN(C)CC2)ccc1Nc1ncc2nc(Nc3ccccc3)n(C(C)C)c2n1 [Compound 8-7, 3-methoxy-4-(9-isopropyl-8-phenylamino-9H-purin-2-ylamino)-N-(4-methylpiperazin-1-yl)benzamide]",–,–,–,–,–,–,–,–,–,–,–,–,–,–,–,–,–,–,–,"inhibition at 10 µM ([1]; read-out: The kinase activity inhibitory rate (%) by the tested compounds at 10 μM ALK): 61%; inhibition at 10 µM ([2]; read-out: The kinase activity inhibitory rate (%) by the tested compounds at 10 μM BTK): 12%; inhibition at 10 µM ([3]; read-out: The kinase activity inhibitory rate (%) by the tested compounds at 10 μM FLT3): 0%; inhibition at 10 µM ([4]; read-out: The kinase activity inhibitory rate (%) by the tested compounds at 10 μM MET): 0%; inhibition at 10 µM ([5]; read-out: The kinase activity inhibitory rate (%) by the tested compounds at 10 μM PDGFRα): 9%; IC50 [6]: > 1 µM; inhibition at 10 µM ([7]; read-out: The kinase activity inhibitory rate (%) by the tested compounds at 10 μM c-KIT): 8%; inhibition at 10 µM ([8]; read-out: The kinase activity inhibitory rate (%) by the tested compounds at 10 μM c-SRC): 28%; IC50 ([9]; Homo sapiens, MV4-11, 72 hours): > 10 µM; IC50 ([10]; Homo sapiens, BT-474, 72 hours): 5.82 µM; IC50 ([11]; Homo sapiens, MDA-MB-468, 72 hours): > 10 µM; IC50 ([12]; Homo sapiens, K562, 72 hours): > 10 µM; IC50 ([13]; Homo sapiens, HCT-116, 72 hours): > 10 µM; IC50 ([14]; Homo sapiens, SW480, 72 hours): > 10 µM; IC50 ([15]; Homo sapiens, SW-620, 72 hours): > 10 µM; IC50 ([16]; Homo sapiens): 3.76 µM; IC50 ([17]; Homo sapiens, HepG2, 72 hours): > 10 µM; IC50 ([18]; Homo sapiens, A-375, 72 hours): 1.31 µM; IC50 ([19]; Homo sapiens, A-431, 72 hours): > 10 µM"
CC(C)n1c(Nc2ccccc2)nc2cnc(Nc3ccc(C(=O)NC4CCN(C)CC4)cc3)nc21 [Compounds 8-9],36,88,76,67,88,> 1,96,98,0.235,1.03,1.32,0.143,0.518,> 10,0.524,0.764,> 10,0.586,1.53,–
CC(C)n1c(Nc2ccccc2)nc2cnc(Nc3ccc(N4CCN(C)CC4)cc3)nc21 [Compounds 8-10],45,32,87,64,87,> 1,3,23,0.102,0.226,0.7,0.106,1.09,> 10,6.06,> 1,4.8,1.49,1.58,–
CC(C)n1c(Nc2cccc(Br)c2)nc2cnc(Nc3ccc(N4CCN(C)CC4)cc3)nc21 [Compounds 8-11],33,77,67,93,58,0.14,67,98,3.75,0.575,1.19,0.366,1.68,> 10,1.96,> 1,11.2,1.39,7.67,–
C#Cc1cccc(Nc2nc3cnc(Nc4ccc(N5CCN(C)CC5)cc4)nc3n2C(C)C)c1 [Compounds 8-12],80,78,56,93,55,0.05,82,98,1.71,2.14,3.21,0.221,4.01,> 10,1.29,> 1,6.61,3.09,2.57,–
CC(C)n1c(Nc2ccc(F)c(Cl)c2)nc2cnc(Nc3ccc(N4CCN(C)CC4)cc3)nc21 [Compounds 8-13],78,45,89,100,90,> 1,87,31,0.512,0.202,2.1,0.086,2.54,> 10,3.68,> 1,5.96,0.838,1.29,–
